Data on four molecules can be found in PubChem BioAssay AID330 (DTP/NCI, 2004).

Molecules are shown by their SMILES. Values joined by “and” are separate entries in the source; they are usually repeats but may differ in a detail not shown here. Identical values can stand only once. Toxic doses and inconclusive results are not listed.

The test system of the test is P388 leukemia ip, CD2F1 mice, survival T/C. Nature of the test: NCI In Vivo Anticancer Drug Screen. Data for tumor model P388 Leukemia (intraperitoneal) in CD2F1 (CDF1) mice. The following applies: endpoint: median survival time, higher = longer survival. An outline of the steps: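 Mice carrying the transplanted tumor received test compound or vehicle. Survival was recorded in each group, and the value is the treated-group measurement divided by that of the vehicle-treated control group.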

For `CO[C@H]1C[C@](C)(O)Cc2cc3c(c(O)c21)C(=O)c1c(O)cc2c(c1C3=O)O[C@@H]1O[C@@]2(C)[C@H](O)[C@@H](N(C)C)[C@@H]1O`, the T/C was 115 % of control (dose: 1.5 mg/kg/injection, schedule: Q01DX005 (iv), vehicle: clinical formulation); 156 % of control and 166 % of control (dose: 1.56 mg/kg/injection, schedule: Q01DX009 (ip), vehicle: other); 95 % of control (dose: 1.6 mg/kg/injection, schedule: Q01DX009 (oral), vehicle: other); 158 % of control and 166 % of control (dose: 2.5 mg/kg/injection, schedule: Q01DX005 (ip), vehicle: clinical formulation); 165 % of control (dose: 2.5 mg/kg/injection, schedule: Q01DX005 (ip), vehicle: other); 124 % of control (dose: 3.0 mg/kg/injection, schedule: Q01DX005 (iv), vehicle: other). The T/C is 159 % of control (dose: 3.0 mg/kg/injection, schedule: Q01DX009 (ip), vehicle: other); 157 % of control (dose: 3.12 mg/kg/injection, schedule: Q01DX009 (ip), vehicle: saline + alcohol); 100 % of control and 102 % of control (dose: 3.13 mg/kg/injection, schedule: Q01DX009 (oral), vehicle: other); 103 % of control (dose: 3.13 mg/kg/injection, schedule: Q01DX009 (oral), vehicle: saline); 156 % of control and 161 % of control (dose: 4.5 mg/kg/injection, schedule: Q01DX005 (ip), vehicle: other); 160 % of control and 169 % of control (dose: 4.5 mg/kg/injection, schedule: Q01DX005 (iv), vehicle: clinical formulation). Moreover, the T/C is 185 % of control and 190 % of control (dose: 5.0 mg/kg/injection, schedule: Q01DX005 (ip), vehicle: clinical formulation); 158 % of control and 178 % of control (dose: 5.0 mg/kg/injection, schedule: Q01DX005 (ip), vehicle: distilled water + Tween-80); 185 % of control (dose: 5.0 mg/kg/injection, schedule: Q01DX005 (ip), vehicle: other); 157 % of control (dose: 6.25 mg/kg/injection, schedule: Q01DX009 (ip), vehicle: saline + alcohol); 110 % of control and 113 % of control and 122 % of control (dose: 6.25 mg/kg/injection, schedule: Q01DX009 (oral), vehicle: other); 162 % of control and 165 % of control (dose: 6.25 mg/kg/injection, schedule: Q04DX003 (ip), vehicle: other). In addition, the T/C is 180 % of control (dose: 6.48 mg/kg/injection, schedule: Q04DX003 (ip), vehicle: other); 172 % of control and 176 % of control (dose: 6.7 mg/kg/injection, schedule: Q01DX005 (ip), vehicle: other); 187 % of control and 197 % of control (dose: 6.7 mg/kg/injection, schedule: Q01DX005 (iv), vehicle: clinical formulation); 161 % of control and 162 % of control (dose: 6.7 mg/kg/injection, schedule: Q01DX005 (iv), vehicle: other); 235 % of control and 238 % of control (dose: 10.0 mg/kg/injection, schedule: Q01DX005 (ip), vehicle: clinical formulation); 180 % of control and 243 % of control (dose: 10.0 mg/kg/injection, schedule: Q01DX005 (ip), vehicle: distilled water + Tween-80). Moreover, the T/C is, setting by setting: (dose: 10.0 mg/kg/injection, schedule: Q01DX005 (ip), vehicle: other) 195 % of control (2×) and 218 % of control; (dose: 10.0 mg/kg/injection, schedule: Q01DX005 (iv), vehicle: clinical formulation) 208 % of control and 211 % of control; (dose: 10.0 mg/kg/injection, schedule: Q01DX005 (iv), vehicle: other) 176 % of control and 193 % of control; (dose: 10.8 mg/kg/injection, schedule: Q04DX003 (ip), vehicle: other) 183 % of control; (dose: 12.5 mg/kg/injection, schedule: Q01DX001 (ip), vehicle: other) 155 % of control and 157 % of control; (dose: 12.5 mg/kg/injection, schedule: Q01DX001 (sc), vehicle: other) 103 % of control. Also, the T/C reads like this: (dose: 12.5 mg/kg/injection, schedule: Q01DX009 (ip), vehicle: saline + alcohol) 178 % of control; (dose: 12.5 mg/kg/injection, schedule: Q01DX009 (oral), vehicle: other) 158 % of control; (dose: 12.5 mg/kg/injection, schedule: Q01DX009 (oral), vehicle: saline) 156 % of control; (dose: 12.5 mg/kg/injection, schedule: Q04DX003 (ip), vehicle: other) 166 % of control and 187 % of control; (dose: 15.0 mg/kg/injection, schedule: Q01DX005 (ip), vehicle: other) 224 % of control and 237 % of control; (dose: 15.0 mg/kg/injection, schedule: Q01DX005 (iv), vehicle: clinical formulation) 215 % of control and 224 % of control. Also, the T/C is, setting by setting: (dose: 15.0 mg/kg/injection, schedule: Q01DX005 (iv), vehicle: other) 196 % of control; (dose: 15.0 mg/kg/injection, schedule: Q01DX009 (oral), vehicle: other) 197 % of control; (dose: 18.0 mg/kg/injection, schedule: Q04DX003 (ip), vehicle: other) 240 % of control; (dose: 20.0 mg/kg/injection, schedule: Q01DX005 (ip), vehicle: clinical formulation) 117 % of control and 284 % of control; (dose: 20.0 mg/kg/injection, schedule: Q01DX005 (ip), vehicle: distilled water + Tween-80) 270 % of control and 280 % of control; (dose: 20.0 mg/kg/injection, schedule: Q01DX005 (ip), vehicle: other) 284 % of control. For the same molecule, the T/C was 231 % of control (dose: 22.0 mg/kg/injection, schedule: Q01DX009 (oral), vehicle: other); 346 % of control (dose: 22.5 mg/kg/injection, schedule: Q01DX005 (ip), vehicle: other); 150 % of control and 160 % of control (dose: 25.0 mg/kg/injection, schedule: Q01DX001 (ip), vehicle: other); 106 % of control and 112 % of control (dose: 25.0 mg/kg/injection, schedule: Q01DX001 (sc), vehicle: other); 231 % of control (dose: 25.0 mg/kg/injection, schedule: Q01DX009 (ip), vehicle: saline + alcohol); 111 % of control and 211 % of control and 96 % of control (dose: 25.0 mg/kg/injection, schedule: Q01DX009 (oral), vehicle: other). Moreover, the T/C reads like this: (dose: 25.0 mg/kg/injection, schedule: Q01DX009 (oral), vehicle: saline) 229 % of control; (dose: 25.0 mg/kg/injection, schedule: Q04DX003 (ip), vehicle: other) 192 % of control and 193 % of control; (dose: 30.0 mg/kg/injection, schedule: Q04DX003 (ip), vehicle: other) 247 % of control; (dose: 50.0 mg/kg/injection, schedule: Q01DX001 (ip), vehicle: other) 157 % of control and 197 % of control; (dose: 50.0 mg/kg/injection, schedule: Q01DX001 (sc), vehicle: other) 100 % of control and 122 % of control; (dose: 50.0 mg/kg/injection, schedule: Q01DX009 (oral), vehicle: other) 101 % of control and 103 % of control and 91 % of control. Also, the T/C by setting is: (dose: 50.0 mg/kg/injection, schedule: Q01DX009 (oral), vehicle: saline) 91 % of control; (dose: 50.0 mg/kg/injection, schedule: Q04DX003 (ip), vehicle: other) 182 % of control and 252 % of control; (dose: 100.0 mg/kg/injection, schedule: Q01DX001 (ip), vehicle: other) 169 % of control; (dose: 100.0 mg/kg/injection, schedule: Q01DX001 (sc), vehicle: other) 105 % of control; (dose: 200.0 mg/kg/injection, schedule: Q01DX001 (ip), vehicle: other) 175 % of control; (dose: 200.0 mg/kg/injection, schedule: Q04DX003 (ip), vehicle: other) 95 % of control.

With `CN(C)/C=C1\CCCCC1=C(C#N)C#N`, the T/C is, setting by setting: (dose: 100.0 mg/kg/injection, schedule: Q04DX003 (ip), vehicle: saline) 100 % of control; (dose: 200.0 mg/kg/injection, schedule: Q04DX003 (ip), vehicle: saline) 93 % of control; (dose: 400.0 mg/kg/injection, schedule: Q04DX003 (ip), vehicle: saline) 95 % of control.

Take `CCNc1nc(Cl)nc(NCC)n1`: the T/C was 98 % of control (dose: 100.0 mg/kg/injection, schedule: Q01DX009 (ip), vehicle: saline); 91 % of control (dose: 200.0 mg/kg/injection, schedule: Q01DX009 (ip), vehicle: saline); 94 % of control (dose: 400.0 mg/kg/injection, schedule: Q01DX009 (ip), vehicle: saline).

For `O=[N+]([O-])c1ccc(-c2ncc(-c3ccc(Br)cc3)o2)cc1`, the T/C is 108 % of control (dose: 60.0 mg/kg/injection, schedule: Q01DX005 (ip), vehicle: Klucel (hydroxypropylcellulose) (HPC)); 107 % of control (dose: 120.0 mg/kg/injection, schedule: Q01DX005 (ip), vehicle: Klucel (hydroxypropylcellulose) (HPC)); 110 % of control (dose: 240.0 mg/kg/injection, schedule: Q01DX005 (ip), vehicle: Klucel (hydroxypropylcellulose) (HPC)).
